Among the data in ChEMBL document CHEMBL1124269, “1,3-Diamino-6,7-dimethoxyisoquinoline derivatives as potential alpha 1-adrenoceptor antagonists” (J Med Chem, 1988) are pKa, Ki and Reduction values, retold here.

Assay [1] can be described thus: Ionization constant of the compound.
Assay [2] addresses T1, Adrenergic receptor alpha-2 (Rattus norvegicus, UniProt P22086+P19328+P22909).
T1 sequence (P22086 whole entry): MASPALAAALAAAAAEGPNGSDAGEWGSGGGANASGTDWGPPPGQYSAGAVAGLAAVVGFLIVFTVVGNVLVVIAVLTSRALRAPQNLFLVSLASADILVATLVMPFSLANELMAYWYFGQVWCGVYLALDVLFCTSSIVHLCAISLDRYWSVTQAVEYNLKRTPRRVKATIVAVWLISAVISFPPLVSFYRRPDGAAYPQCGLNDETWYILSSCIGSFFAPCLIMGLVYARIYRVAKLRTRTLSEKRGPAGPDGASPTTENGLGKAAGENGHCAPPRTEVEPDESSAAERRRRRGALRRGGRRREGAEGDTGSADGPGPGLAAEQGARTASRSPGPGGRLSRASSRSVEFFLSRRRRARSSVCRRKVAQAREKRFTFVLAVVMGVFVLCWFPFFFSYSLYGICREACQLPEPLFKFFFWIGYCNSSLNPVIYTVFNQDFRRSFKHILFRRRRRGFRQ
T1 sequence (P19328 whole entry): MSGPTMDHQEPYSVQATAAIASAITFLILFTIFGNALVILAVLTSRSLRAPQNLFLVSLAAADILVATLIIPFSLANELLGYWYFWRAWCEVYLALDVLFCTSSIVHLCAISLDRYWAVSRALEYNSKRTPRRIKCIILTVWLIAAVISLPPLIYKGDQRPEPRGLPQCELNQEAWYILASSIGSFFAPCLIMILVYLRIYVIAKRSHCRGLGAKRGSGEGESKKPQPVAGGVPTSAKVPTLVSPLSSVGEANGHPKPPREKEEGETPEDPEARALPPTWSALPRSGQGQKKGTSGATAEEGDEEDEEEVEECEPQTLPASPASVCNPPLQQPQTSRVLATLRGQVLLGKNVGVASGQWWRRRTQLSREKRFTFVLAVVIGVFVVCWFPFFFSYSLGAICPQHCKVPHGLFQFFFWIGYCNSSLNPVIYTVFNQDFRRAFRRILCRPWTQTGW
T1 sequence (P22909 whole entry): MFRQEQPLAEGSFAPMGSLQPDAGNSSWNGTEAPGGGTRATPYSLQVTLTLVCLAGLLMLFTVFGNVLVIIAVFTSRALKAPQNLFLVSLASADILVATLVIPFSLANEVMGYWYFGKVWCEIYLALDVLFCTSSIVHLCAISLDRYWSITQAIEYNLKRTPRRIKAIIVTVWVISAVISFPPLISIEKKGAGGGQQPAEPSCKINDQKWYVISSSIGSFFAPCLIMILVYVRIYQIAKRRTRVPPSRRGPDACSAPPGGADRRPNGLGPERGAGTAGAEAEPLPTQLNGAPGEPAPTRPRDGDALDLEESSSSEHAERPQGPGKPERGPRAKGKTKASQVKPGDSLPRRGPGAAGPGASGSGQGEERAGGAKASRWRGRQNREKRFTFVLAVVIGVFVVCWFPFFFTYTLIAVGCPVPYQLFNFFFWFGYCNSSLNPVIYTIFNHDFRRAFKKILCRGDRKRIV
The experiment in a line: Binding affinity to alpha-2 adrenergic receptor by displacement of [3H]clonidine. The assay is classed as protein assay.

Assay [3] concerns the target T2, Adrenergic receptor alpha-1 (Rattus norvegicus, UniProt P15823+P23944+P43140).
T2 sequence (P15823 whole entry): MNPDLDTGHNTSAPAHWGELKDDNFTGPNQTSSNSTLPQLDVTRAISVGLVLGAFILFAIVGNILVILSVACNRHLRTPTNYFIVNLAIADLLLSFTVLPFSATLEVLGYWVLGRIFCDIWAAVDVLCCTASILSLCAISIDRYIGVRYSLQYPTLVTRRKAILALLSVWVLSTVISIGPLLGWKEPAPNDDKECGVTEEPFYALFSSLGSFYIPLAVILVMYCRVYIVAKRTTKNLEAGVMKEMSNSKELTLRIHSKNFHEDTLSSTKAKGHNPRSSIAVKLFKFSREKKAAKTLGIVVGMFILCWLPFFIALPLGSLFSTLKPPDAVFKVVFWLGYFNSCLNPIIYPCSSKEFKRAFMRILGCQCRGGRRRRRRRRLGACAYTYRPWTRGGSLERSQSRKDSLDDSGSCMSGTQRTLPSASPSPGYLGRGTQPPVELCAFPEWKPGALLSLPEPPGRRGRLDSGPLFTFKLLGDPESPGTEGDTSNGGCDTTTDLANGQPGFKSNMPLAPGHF
T2 sequence (P23944 whole entry): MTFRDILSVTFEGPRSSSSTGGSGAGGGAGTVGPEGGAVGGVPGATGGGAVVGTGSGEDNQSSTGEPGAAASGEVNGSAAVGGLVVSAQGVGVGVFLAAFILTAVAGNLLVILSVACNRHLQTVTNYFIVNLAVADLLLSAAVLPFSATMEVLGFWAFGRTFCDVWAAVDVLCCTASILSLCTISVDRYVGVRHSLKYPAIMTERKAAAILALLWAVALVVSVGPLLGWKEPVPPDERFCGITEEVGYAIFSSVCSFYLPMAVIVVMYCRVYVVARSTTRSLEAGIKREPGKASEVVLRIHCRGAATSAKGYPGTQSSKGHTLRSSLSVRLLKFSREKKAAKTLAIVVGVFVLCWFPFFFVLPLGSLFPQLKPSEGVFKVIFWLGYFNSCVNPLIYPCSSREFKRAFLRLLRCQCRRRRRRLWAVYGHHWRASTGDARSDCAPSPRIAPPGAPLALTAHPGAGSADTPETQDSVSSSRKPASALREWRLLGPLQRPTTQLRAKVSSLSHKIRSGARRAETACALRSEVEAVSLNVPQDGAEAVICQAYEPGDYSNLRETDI
T2 sequence (P43140 whole entry): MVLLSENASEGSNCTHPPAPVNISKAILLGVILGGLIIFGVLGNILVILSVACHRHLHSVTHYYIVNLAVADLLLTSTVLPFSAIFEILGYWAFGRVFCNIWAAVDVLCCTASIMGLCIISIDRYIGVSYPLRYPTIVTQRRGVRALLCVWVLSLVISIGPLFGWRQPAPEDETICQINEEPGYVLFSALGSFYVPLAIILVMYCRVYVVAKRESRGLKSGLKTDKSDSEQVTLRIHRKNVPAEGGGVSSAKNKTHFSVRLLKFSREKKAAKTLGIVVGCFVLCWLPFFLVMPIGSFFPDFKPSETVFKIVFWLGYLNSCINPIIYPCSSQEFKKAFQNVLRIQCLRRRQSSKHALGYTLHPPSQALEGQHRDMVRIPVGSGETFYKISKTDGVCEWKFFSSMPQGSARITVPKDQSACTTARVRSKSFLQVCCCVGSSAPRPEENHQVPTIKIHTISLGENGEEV
The assay is described as follows: Binding affinity to Alpha-1 adrenergic receptor by displacement of [3H]prazosin. Format: protein assay. (Displacement assays read how much labelled ligand stays bound in the presence of the test substance.)

Assay [4] deals with Rattus norvegicus. The assay is described as follows: Percent reduction of SHR (Spontaneous Hypertensive Rat) blood pressure at 4.5 hr at a dose 10 mg/kg peroral administration. The assay is classed as functional. The note with it: route oral.
In assay [5] the test system is Rattus norvegicus. The assay is described as follows: Percent reduction of SHR (Spontaneous Hypertensive Rat) blood pressure at 1 hr at a dose 10 mg/kg peroral administration. The assay is classed as functional. The note with it: route oral.
For assay [6], the system named is Rattus norvegicus. The experiment in a line: Percent reduction of SHR (Spontaneous Hypertensive Rat) blood pressure at 1 hr at a dose 3 mg/kg peroral administration. Particulars: route oral.
Assay [7] concerns Rattus norvegicus. The experiment in a line: Percent reduction of SHR (Spontaneous Hypertensive Rat) blood pressure at 4.5 hr at a dose 3 mg/kg peroral administration. Particulars: route oral.
Assay [8] deals with Rattus norvegicus. The assay is described as follows: Percent reduction of SHR (Spontaneous Hypertensive Rat) blood pressure at 1 hr at a dose 3 mg/kg peroral administration. The assay is classed as functional. The note with it: route oral.
The subject of assay [9] is Rattus norvegicus. The assay is described as follows: Percent reduction of SHR (Spontaneous Hypertensive Rat) blood pressure at 4.5 hr at a dose 3 mg/kg peroral administration. Format: functional. The note with it: route oral.

Compound `COc1cc2nc(N(C)C)nc(N)c2cc1OC` registered a pKa in assay [1] of 8.1. Further, the inhibition constant Ki in assay [2] was above 1000 nM; in [3] (read-out: Ki), 4.1 nM.

`COc1cc2cc(N(C)C)nc(N)c2cc1OC`: in [1], the pKa came out at 7.1. Also, the Ki in [2] and in assay [3] was >> 1 uM throughout. Moreover, the Reduction in the assay with Rattus norvegicus [4] is 10%; in the assay with Rattus norvegicus [5], 12%.

Turning to `COc1cc2nc(N(C)C)cc(N)c2cc1OC`, the pKa in assay [1] was 9.3. Besides, the values for the Ki in assay [2] and in assay [3] (read-out: Ki) were above 1000 nM and 11.4 nM, respectively. In addition, the Reduction was determined as 12% with Rattus norvegicus [6] and 11% in the assay on Rattus norvegicus [7].

In [1], `COc1cc2nc(N3CCN(C(=O)c4ccco4)CC3)nc(N)c2cc1OC` [PRAZOSIN] gave a pKa of 6.8. Also, the Reduction with Rattus norvegicus [8] is listed as 24%; in the assay with Rattus norvegicus [9], 15%.

`COc1cc2cc(N3CCCCC3)nc(N)c2cc1OC`: the inhibition constant Ki in assay [2] and in assay [3] was >> 1 uM in each case. For the same compound, the Reduction in the assay on Rattus norvegicus [4] was 11%; in the assay with Rattus norvegicus [5] it was 15%.

Turning to `COc1cc2cc(N3CCN(C(=O)c4ccco4)CC3)nc(N)c2cc1OC`, the inhibition constant (Ki) in assay [3] (read-out: Ki) worked out at 160 nM. Further, the results for the Reduction with Rattus norvegicus [4] and with Rattus norvegicus [5] were 6% and 4%, respectively.

By Ki is commonly meant the dissociation constant of the complex between target and ligand, obtained from inhibition or displacement.
